Earlier results on one compound are cited in patent publication US7812020B2, “Substituted pyridine derivatives” (priority 2005, dated 2010).

For series [1], the system named is animal models of anxiety-like behaviour. Particulars: in vivo.
The subject of series [2] is K(+) current in neuronal cells.
Series [3] has as its system rat.
For series [4], the system named is amygdala kindling model. Particulars: complex partial seizures.
Series [5] deals with epileptic patients. Conditions: clinical trials.
Series [6] concerns rat. Particulars: following kainic acid-induced status epilepticus in the rat.
Series [7] relates to animal models of neuropathic pain. Particulars: in vivo.
In series [8] the test system is rats and mice. Particulars: oral and intraperitoneal administration; electrically induced seizures, pentylenetetrazole, picrotoxin, NMDA, DBA/2 mouse.

For `CCOC(=O)Nc1ccc(NCc2ccc(F)cc2)cc1N` [Retigabine, N-(2-amino-4-(4-fluorobenzylamino)-phenyl)carbamic acid ethyl ester], the “activity in anxiety-like behaviour models” value in series [1] is recorded as “active”. Further, the “effect on K(+) current” value in series [2] was “activate a K(+) current”. Besides, in series [3], the “progression of hippocampal kindling” value is “delay the progression of hippocampal kindling”. The “activity in amygdala kindling model” value in series [4] is on record as “active”. Also, the incidence of seizures result in series [5] was “effectiveness in reducing the incidence of seizures”. In addition, the “limbic neurodegeneration and markers of apoptosis” value in series [6] is “prevent limbic neurodegeneration and the expression of markers of apoptosis”. Also, the “effect in neuropathic pain models” value in series [7] is reported as “beneficial”. Moreover, the anticonvulsant activity result in series [8] was “active”.
